Assay results from paper PMC11048155, “Antiviral Drug Candidate Repositioning for Streptococcus suis Infection in Non-Tumorigenic Cell Models” (Biomedicines, 2024).
Converted amounts (≈) assume the structure as drawn. “Also recorded” adds a separate entry of the source. Like-named read-outs stand apart in the source and are kept apart here.

Columns and labels:
[1] = test system: Staphylococcus (S.) aureus (ATCC 10832); assay: MIC measurement (broth microdilution); type: cell-based; conditions: source ATCC, 18–24 h at 37 °C
[2] = test system: Salmonella (S.) enterica (clinical isolate); assay: MIC measurement (broth microdilution); type: cell-based; conditions: source 204/22, 18–24 h at 37 °C
Source text: Bacterial strains used in this study were as follows: S. suis serotype 2 (ATCC 958242) Staphylococcus (S.) aureus (ATCC 10832), Escherichia (E.) coli (ATCC 11775), Pseudomonas (P.) aeruginosa (ATCC 27853), Pasteurella (P.) multocida (clinical isolate), Burkholderia (B.) cepacia (clinical isolate), Salmonella (S.) enterica (clinical isolate), and Enterococcus (E.) faecalis (clinical isolate). Of the clinical isolates used in this study, P. multocida is of porcine origin, B. cepacia is of human origin, and S. enterica and E. faecalis are of poultry origin. The bacterial strains were stored in the Microbiology Laboratory of the University of Veterinary Medicine, Budapest, at a temperature of −80 °C. Bacterial strains were inoculated the day before the test in 5 mL of Cation-Adjusted Mueller–Hinton Broth (CAMHB) and incubated for 18–24 h at 37 °C. The initial inoculum concentration used for the MIC assay was 5 × 10^5/mL. All wells except the first column of the working plates were filled with 90 µL CAMHB. A stock solution of inhibitors at 800 µM was then prepared, 180 µL of which was measured into the first column of plates and used to prepare a 2-based dilution on 96-well plates. After the 10th column, the tips were discarded with the 90 µL excess solution so that each column contained 90 µL of solution. Each bacterial strain was tested in a single row on the working plates. A bacterial suspension diluted to 25× was prepared on an auxiliary plate for bacterial inoculation by loading 240 µL of TSB per column of plates and adding 10–10 µL of bacterial strain suspension per well. In the next step, the isolated bacterial strains were inoculated onto the plates. Starting from column 11 (positive control) of the plates containing dilution row 2, 10 µL of bacterial suspension was added to each well, working backward. Column 11 served as a positive control (containing only bacterial suspension and broth), while column 12 served as a negative control (containing only broth). The microplates were then incubated at 37 °C for 18–24 h, and the MIC values were assessed in comparison to positive controls.

[3] = test system: Pasteurella (P.) multocida (clinical isolate); assay: MIC measurement (broth microdilution); type: cell-based; conditions: source 380/22, 18–24 h at 37 °C
[4] = test system: Enterococcus (E.) faecalis (clinical isolate); assay: MIC measurement (broth microdilution); type: cell-based
[5] = test system: Escherichia (E.) coli (ATCC 11775); assay: MIC measurement (broth microdilution); type: cell-based; conditions: source ATCC, 18–24 h at 37 °C
[6] = test system: Burkholderia (B.) cepacia (clinical isolate); assay: MIC measurement (broth microdilution); type: cell-based
S. suis serotype 2 = assay: MIC measurement (broth microdilution); type: cell-based, Streptococcus suis; conditions: source 672/22, 18–24 h at 37 °C
[7] = test system: Pseudomonas (P.) aeruginosa (ATCC 27853); assay: MIC measurement (broth microdilution); type: cell-based; conditions: source ATCC, 18–24 h at 37 °C
porcine hepatocytes = assay: IL-6 production, porcine IL-6 ELISA; type: cell-based; conditions: S. suis 10^4 CFU/mL in combination with inhibitor, 24 h
Protocol: (§1) After 24 h incubation time, the cell-free supernatants from […], MI-471, and MI-476 exposure were sampled from IPEC-J2 cells and from porcine hepatocytes. The changes in cytokine levels were detected with porcine IL-6 ELISA kits. The manufacturer’s instructions were followed to treat the supernatants and measured by a SpectraMax iD3 microplate reader at 450 nm.

IPEC-J2 cells [8] = assay: IL-6 production, porcine IL-6 ELISA; type: cell-based; conditions: IPEC-J2, S. suis 10^4 CFU/mL in combination with inhibitor, 24 h
Protocol: as §1

[9] = test system: primary porcine hepatocytes; assay: Cell viability, Neutral red assay; type: cell-based; conditions: S. suis 10^4 CFU/mL in combination with inhibitor 50 µM, 24 h
Protocol: Porcine cryopreserved primary hepatocytes were obtained from Primacyt Cell Culture Company (Schwerin, Germany). Lonza Group Ltd. (Biocenter Ltd., Szeged, Hungary) supplied the thawing, plating, and maintenance media. The cytotoxic effects of inhibitors MI-432, MI-471, and MI-476 were tested on the viability of primary hepatocytes using the NR method. The hepatocytes were cultivated on a 96-well plate for 24 h, followed by incubation with the inhibitors at 0, 50, and 100 µM for an additional 24 h. Only cell maintenance medium was used to incubate the control cells. The plate underwent incubation together with NR dye for 2 h. Hepatocyte viability was recorded at 540 nm with a SpectraMax iD3 microplate reader.

IPEC-J2 cells [10] = assay: Cell viability, Neutral red assay; type: cell-based, porcine; conditions: IPEC-J2, S. suis 10^4 CFU/mL in combination with inhibitor 50 µM, 24 h
Source text: The IPEC-J2 cell line is unique as it is non-transformed and non-tumorigenic. IPEC-J2 cells are derived from intestinal enterocytes extracted from the jejunum of neonatal unsuckled piglets. IPEC-J2 cells were gifted by Dr. Jody Gookin (Department of Clinical Sciences, College of Veterinary Medicine, North Carolina State University, Raleigh, NC, USA). […] The cells had undergone passage around 50 times. […] This experiment included plain DMEM/F12 medium as a control. At the end of the final treatments (24 h), the ratio of viable cells was measured by absorbance at 540 nm wavelength with a SpectraMax iD3 microplate reader.

monkey CYP1A2 enzymes = conditions: cited from earlier work
SARS-CoV-2 = test system: SARS-CoV-2; design: method as in PMID 32703818; conditions: human airway cells, synergistically in combination with furin inhibitor MI-1851; cited from earlier work
IPEC-J2 cells [11] = assay: EC H2O2 production, Amplex red method; type: cell-based, porcine; conditions: 24 h
Protocol: For oxidative status measurements, inhibitors MI-432, MI-471, or MI-476 were used at 50 µM in the absence and presence of S. suis for 24 h in IPEC-J2 cells and in primary porcine hepatocytes on 24-well plates. An Amplex red hydrogen peroxide assay kit was used to monitor EC hydrogen peroxide (H₂O₂) production in IPEC-J2 cells and in hepatocytes. Following the manufacturer’s instructions, cell-free supernatants were collected and mixed with the Amplex red working solution (in a ratio of 1:1). A Victor X2 2030 fluorometer was used to detect fluorescence intensity at wavelengths 530 nm and 590 nm for excitation and emission, respectively.

CYP2D6 = CYP2D6 (Homo sapiens, UniProt P10635); assay: CYP enzyme fluorometric activity measurement, human hepatic microsomes; conditions: reference inhibitor at 3 µM; p < 0.05
CYP2D6, sequence (P10635 whole entry): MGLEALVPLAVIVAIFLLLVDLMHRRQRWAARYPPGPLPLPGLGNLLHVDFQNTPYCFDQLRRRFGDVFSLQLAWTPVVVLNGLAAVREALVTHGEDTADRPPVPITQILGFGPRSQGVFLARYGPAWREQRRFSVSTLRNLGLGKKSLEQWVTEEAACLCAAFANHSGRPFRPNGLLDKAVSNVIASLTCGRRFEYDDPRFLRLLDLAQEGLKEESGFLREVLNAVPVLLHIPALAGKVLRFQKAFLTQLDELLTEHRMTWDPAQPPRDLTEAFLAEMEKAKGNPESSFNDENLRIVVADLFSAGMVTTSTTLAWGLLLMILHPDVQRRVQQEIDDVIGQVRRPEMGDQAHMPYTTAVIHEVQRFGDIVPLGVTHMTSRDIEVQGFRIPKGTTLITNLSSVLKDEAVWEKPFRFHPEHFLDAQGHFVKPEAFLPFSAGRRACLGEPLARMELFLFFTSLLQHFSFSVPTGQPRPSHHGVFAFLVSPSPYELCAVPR
Protocol: (§2) The Biovision CYP assays (BioVision, Inc., Kampenhout, Belgium) employ non-fluorescent CYP2D6, 2C9, 2C19, 1A2, or 3A4 substrates able to undergo transformation into highly fluorescent detectable metabolites. […] Human hepatic microsomal supernatants were prepared (Gibco, Biocentre, Szeged, Hungary protein concentration: 20 mg/mL) separately by mixing 30 µL with 2425 µL assay buffer and with 50 µL nicotinamide adenine dinucleotide phosphate (NADPH) generating system (100×). […] Control measurements were performed in the absence of the inhibitors.
(§3) In background controls, only assay buffer excluding microsomes and test compounds was used in a volume of 70 µL. Subsequently, after incubation at 37 °C for 15 min, 30 µL of the suitable CYP substrate/NADP+ mixture was incorporated into each well, resulting in a final reaction volume of 100 µL/well. The obtained microsomal protein content was assessed using the bicinchoninic acid protein assay kit (Pierce BCA kit, Thermo Fisher Scientific, Waltham, MA, USA). In each assay, the microsomal protein concentration was calibrated to 100 µg/well. The fluorescence intensities were measured with a fluorometer (Victor X2 2030, Perkin Elmer, Waltham, MA, USA) using λex/em = 406/468 nm for CYP1A2 and for CYP2C19, λex/em = 415/502 nm for CYP2C9, λex/em = 390/468 nm for CYP2D6, and λex/em = 535/587 nm for CYP3A4 assays.

[12] = test system: S. suis strains isolated from pigs; conditions: cited from earlier work; for S. suis strains sensitive: same survey (VetPath); for S. suis strains found to be sensitive: strains isolated from pigs, European VetPath survey 2005–2012
CYP1A2 = target: T1, CYP1A2 (Homo sapiens, UniProt P05177); assay: CYP enzyme fluorometric activity measurement, human hepatic microsomes; conditions: reference inhibitor at 6 µM; p < 0.001
T1 sequence (P05177 1-516): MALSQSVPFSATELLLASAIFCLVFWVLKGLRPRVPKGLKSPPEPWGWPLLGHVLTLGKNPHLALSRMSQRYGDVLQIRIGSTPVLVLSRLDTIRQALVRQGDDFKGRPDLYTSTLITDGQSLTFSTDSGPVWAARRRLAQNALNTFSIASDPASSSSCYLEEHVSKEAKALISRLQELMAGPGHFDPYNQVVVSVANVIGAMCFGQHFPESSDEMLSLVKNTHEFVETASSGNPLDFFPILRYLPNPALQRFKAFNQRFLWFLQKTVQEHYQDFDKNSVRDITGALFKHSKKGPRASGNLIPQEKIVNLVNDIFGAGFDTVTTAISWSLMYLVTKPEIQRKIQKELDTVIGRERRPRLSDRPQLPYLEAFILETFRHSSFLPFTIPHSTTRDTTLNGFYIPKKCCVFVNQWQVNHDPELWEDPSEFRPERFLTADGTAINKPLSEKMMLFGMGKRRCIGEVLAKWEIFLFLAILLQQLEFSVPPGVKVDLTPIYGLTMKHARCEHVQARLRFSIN
Protocol: as §2, §3

[13] = E. fecalis, source 442, 18–24 h at 37 °C, read-out: MIC
[14] = B. cepacia, source 20-10299, 18–24 h at 37 °C, read-out: MIC

## COc1ccc(-c2cccc(S(=O)(=O)N[C@@H](Cc3cccc(C(=N)N)c3)C(=O)N3CCC(NC(=O)NC(C)(C)C)CC3)c2)c(OC)c1 [MI-485]
[1]
  MIC: 100 to 200 µM
[1]; read-out: MIC
  MIC: 200 µM (≈ 133 µg/mL)
[2]
  MIC: >800 µM
[3]
  MIC: >800 µM
[4]; [13]
  MIC: >800 µM
[5]
  MIC: >800 µM
[6]; [14]
  MIC: 800 µM (≈ 532 µg/mL)
S. suis serotype 2
  MIC: 50 µM (≈ 33.2 µg/mL)
[7]
  MIC: >800 µM

## N=C(N)c1cccc(C[C@H](NS(=O)(=O)c2cccc(-c3ccc(Cl)cc3Cl)c2)C(=O)N2CCC(CCN)CC2)c1 [MI-432]
[1]; read-out: MIC
  MIC: 50 µM (≈ 30.1 µg/mL)
Porcine hepatocytes
  IL-6 levels: significant anti-inflammatory effects
IPEC-J2 cells [8]
  IL-6 levels: significant anti-inflammatory effects
[2]
  MIC: > 800 µM
[9]
  cell viability: significantly decreased cell viability; also recorded: reduction in the number of viable cells
[4]; Enterococcus
  MIC: > 800 µM
[5]
  MIC: > 800 µM
IPEC-J2 cells [10]
  cell viability: slightly less worsening of the cells; also recorded: reduction in the number of viable cells
[6]
  MIC: 800 µM (≈ 482 µg/mL)
S. suis serotype 2; Streptococcus suis
  MIC: 1.5 µM (≈ 0.904 µg/mL)
S. suis serotype 2
  MIC: < 1.5625 µM
S. suis serotype 2; listed as 432
  MIC: <1.5625 µM
Monkey CYP1A2 enzymes
  inhibition of monkey CYP1A2 enzymes: significant inhibition
SARS-CoV-2
  efficacy against SARS-CoV-2: effective
IPEC-J2 cells [11]; IPEC-J2, S. suis 10^4 CFU/mL in combination with inhibitor 50 µM
  EC H2O2 production: unchanged H₂O₂ production; also recorded: antioxidant properties
IPEC-J2 cells [11]; IPEC-J2, inhibitor alone 50 µM
  EC H2O2 production: unchanged H₂O₂ production

## C=C[C@H]1C[N@@]2CC[C@H]1C[C@@H]2[C@@H](O)c1ccnc2ccc(OC)cc12 [quinidine]
CYP2D6
  CYP2D6 activity: significantly suppressed

## CS(=O)(=O)c1ccc([C@@H](O)[C@@H](CF)NC(=O)C(Cl)Cl)cc1 [florfenicol]
[12]
  S. suis strains sensitive: more than 95%

## amoxicillin–clavulanic acid
[12]
  S. suis strains found to be sensitive: 100%

## O=c1cc(-c2ccccc2)oc2c1ccc1ccccc12 [α-naphthoflavone, reference compound]
CYP1A2
  CYP1A2 activity: significantly suppressed

## COc1ccc(-c2cccc(S(=O)(=O)N[C@@H](Cc3cccc(C(=N)N)c3)C(=O)N3CCC(N)CC3)c2)c(OC)c1 [MI-472]
[1]; read-out: MIC
  MIC: 800 µM (≈ 453 µg/mL)
[2]
  MIC: >800 µM
[3]
  MIC: 400 µM (≈ 226 µg/mL)
[4]; [13]
  MIC: >800 µM
[5]
  MIC: >800 µM
[6]; [14]
  MIC: 800 µM (≈ 453 µg/mL)
S. suis serotype 2
  MIC: 50 µM (≈ 28.3 µg/mL)
[7]
  MIC: >800 µM

## CO/N=C(\C(=O)N[C@@H]1C(=O)N2C(C(=O)O)=C(CSC(=O)c3ccco3)CS[C@H]12)c1csc(N)n1 [ceftiofur]
[12]
  S. suis strains found to be sensitive: 97%

## CCN1CCN(c2cc3c(cc2F)c(=O)c(C(=O)O)cn3C2CC2)CC1 [enrofloxacin]
[12]
  S. suis strains sensitive: more than 95%

## CN(C)[C@@H]1C(O)=C(C(N)=O)C(=O)[C@@]2(O)C(O)=C3C(=O)c4c(O)cccc4[C@@](C)(O)[C@H]3C[C@@H]12 [tetracycline]
[12]
  S. suis strains sensitive: 4%

## COc1ccc(-c2cccc(S(=O)(=O)N[C@@H](Cc3cccc(C(=N)N)c3)C(=O)N3CCN(C(=O)NC4CCCCC4)CC3)c2)c(OC)c1 [MI-1900, reference compound]
SARS-CoV-2
  efficacy against SARS-CoV-2: effective
